{"source": "ChEMBL document CHEMBL1147756", "about": "“Synthesis and antiviral activity of 7-deazaneplanocin A against orthopoxviruses (vaccinia and cowpox virus)” (Bioorg Med Chem Lett, 2006)", "key": {"Vaccinia virus": {"tested_on": "Vaccinia virus", "assay": "Antiviral activity against Vaccinia virus in HFF cells", "format": "functional, organism-based", "conditions": "Orthopoxvirus vaccinia"}, "Cowpox virus": {"tested_on": "Cowpox virus", "assay": "Antiviral activity against Cowpox virus in HFF cells", "format": "functional, organism-based"}, "HFF": {"tested_on": "HFF", "assay": "Cytotoxicity in HFF cells", "format": "functional", "conditions": "Homo sapiens"}}, "data": [{"smiles": "Nc1ccn(C[C@@H](CO)OCP(=O)(O)O)c(=O)n1", "note": "[CIDOFOVIR]", "values": [{"measurement": "EC50", "setting": "Vaccinia virus", "value": 4.8, "unit": "µM"}, {"measurement": "EC50", "setting": "Cowpox virus", "value": 5, "unit": "µM"}]}, {"smiles": "Nc1ncnc2c1ccn2[C@@H]1C=C(CO)[C@@H](O)[C@H]1O", "note": "[DEAZANEPLANOCIN A]", "values": [{"measurement": "CC50", "setting": "HFF", "value": "> 300", "unit": "µM"}, {"measurement": "EC50", "setting": "Vaccinia virus", "value": 3.4, "unit": "µM"}, {"measurement": "EC90", "setting": "Vaccinia virus", "value": 21.5, "unit": "µM"}, {"measurement": "EC50", "setting": "Cowpox virus", "value": 1.2, "unit": "µM"}, {"measurement": "EC90", "setting": "Cowpox virus", "value": 4.6, "unit": "µM"}]}]}
